Experimental data: article PMC12380353, “MK-8527 is a novel inhibitor of HIV-1 reverse transcriptase translocation with potential for extended-duration dosing” (PLOS Biology, 2025)
Several values for one entry are separate records, joined by “and”; a condition that tells them apart may be missing. Identical values can stand only once. Like-named read-outs stand apart in the source and are kept apart here.

What was measured:
[1] = CellTiter-Glo (CTG) cytotoxicity in MT4-GFP cells; details: human
HIV-1 [2] = experiment: microbe, parasite or virus in culture
HIV-1 [3] = details: HIV-1, PBMCs; read-out: PBMC IC50; cited from earlier work
HIV-1 [4] = experiment: microbe, parasite or virus in culture; details: for IC50: Human immunodeficiency virus 1, PBMC
Description: IC50 values were determined, and a persistence ratio was calculated for each compound. GFP, green fluorescent protein; hpi, hours post-infection; IC50, half maximal inhibitory concentration.
Assay media in each well were then evacuated and the cells resuspended using the gentle setting on the BlueWasher (BlueCatBio; Lebanon, NH, USA). Centrifugation and wash steps were repeated to ensure removal of extracellular compound.
MT4-GFP cells were infected with WT R8 virus, and PBMCs were infected with pNLG1-P2A-GFP. […] IC50 values were determined by nonlinear 4-parameter curve fitting of the data. A persistence ratio was calculated for each compound by dividing the IC50 from variable B (IC50B) by the IC50 from variable A (IC50A).

MT4-GFP cells = experiment: CellTiter-Glo (CTG) cytotoxicity in MT4-GFP cells; details: read-out: MT4-GFP CTG CC50, CellTiter-Glo
HIV-1 [5] = experiment: Single-cycle antiviral assay in PBMCs; assay type: cell-based; details: HIV-1, single-cycle assay, human PBMCs, 10% NHS; read-out: PBMC IC50
Description: To evaluate the ability of inhibitors to prevent HIV-1 infection in primary cells, human PBMCs obtained from Biological Specialty Corporation (Colmar, PA, USA) were used to assess antiviral activity. The proviral variants used for these studies were generated by site-directed mutagenesis in a proviral vector derived from NL43 [52] that encodes GFP (pNLG1-P2A-GFP). Virus was produced by transfection in 293T cells.
PBMCs were activated with phytohemagglutinin (PHA) at 5 μg/mL in Roswell Park Memorial Institute (RPMI) 1640 medium containing 10% heat-inactivated fetal bovine serum (FBS) for 2–3 days. Compound plates were prepared by dispensing compounds dissolved in DMSO into 384-well poly-d-lysine-coated plates (0.2 μL per well) using an Echo acoustic dispenser (Labcyte; San Jose, CA, USA). Each compound was tested in a 10-point serial 3-fold dilution (typical final concentrations: 5,000 to 0.1 nM). Controls included no inhibitor (DMSO only) and a combination of 3 antiviral agents, efavirenz, indinavir, and the integrase strand transfer inhibitor, L-002254051, at final concentrations of 4 μM each. PHA-activated human PBMCs were washed and resuspended in RPMI 1640 containing 10% NHS and 30 units per mL of interleukin-2 (IL-2) at 6 × 10^5 cells per mL. PBMCs were added to the compound plates and cultured for 24 h at 37 °C, 5% CO2, and 90% humidity. The appropriate HIV-1 variant was added to the PBMCs and cultured at 37 °C, 5% CO2, and 90% humidity for an additional 24 h.
HIV-1–infected cells were quantified by counting the number of GFP cells in each well using an Acumen eX3 scanner (SPT Labtech; Melbourn, UK).

HIV-1 [6] = experiment: Multicycle antiviral assay in MT4-GFP cells; assay type: cell-based; details: WT HIV-1, multicycle assay, 10% NHS
Description: Compounds were evaluated for their ability to prevent HIV-1 infection in MT4-GFP cells as described in Diamond, and colleagues. HIV-1 replication was monitored using the MT4-gag-GFP clone D3, and MT4 cells with a GFP reporter gene, the expression of which is dependent on the HIV-1 expressed proteins tat and rev. […] Proviral variants used for these studies were generated by site-directed mutagenesis in the WT R8 proviral plasmid. Virus was produced by transfection in 293T cells.
Briefly, MT4-GFP cells were cultured overnight with the appropriate HIV-1 variant at an approximate multiplicity of infection of 0.01. After approximately 19 h of infection, the cells were washed and resuspended in assay media containing 10% normal human serum (NHS) before being added to 384-well compound plates containing 10-point serial 3-fold dilutions of compound. Controls included no inhibitor (dimethyl sulfoxide [DMSO] only) and a combination of 3 antiviral agents, efavirenz, indinavir, and an integrase strand transfer inhibitor, L-002254051, at final concentrations of 4 µM each. The infected or treated cells were cultured at 37 °C, 5% CO2, and 90% humidity until evaluation of infection was conducted at approximately 48 and 72 h post-infection by counting the number of GFP cells in each well using an Acumen eX3 scanner (SPT Labtech; Melbourn, UK). The reproductive ratio, R, was calculated by dividing the number of infected cells at 72 h by the number at 48 h post-infection. The percentage inhibition caused by a test compound was calculated by the following formula:
inhibition = [1−(Rtest compound − Rpositive control)]/(RDMSO only − Rpositive control) × 100%\]
The dose–response curves of each test compound were plotted as percentage inhibition versus the test concentration.

HIV-1 [7] = test system: HIV-1
HIV RT [8] = target: T1, HIV RT (Human immunodeficiency virus type 1 group M subtype B, UniProt P04585); experiment: HIV-RT primer extension assay (chain termination); assay type: biochemical; details: 1 µM each dNTP
T1 construct: HIV RT (final concentration, 1,200 nM)
Description: The reaction protocol was adapted from previous work. Primers and template used for this assay are described in Fig 8A.
All reagent stocks were in a base assay buffer consisting of 50 mM Tris pH 7.5 and 50 mM NaCl in nuclease-free water. […] Samples were then heated to 95 °C for 10 min prior to storage at −20 °C until being resolved by polyacrylamide gel electrophoresis with 7 M urea.

HIV RT [9] = target: T1, HIV RT; experiment: Iron footprinting assay of RT translocation state; assay type: biochemical; details: 1 µM MK-8527-TP or ISL-TP, 5 µM ddATP; absence or presence of dTTP
Description: The translocation state of RT was assessed with a site-specific iron footprinting assay adapted from previous work. Primer and template used for this assay are described in Fig 7A. The presence of Fe^2+ ions in the reaction generated hydroxyl radicals that cleaved the DNA template in a site-specific manner at the nucleotide closest to the RNase H active site. In addition to an RT inhibitor in the reaction, dTTP, the subsequent dNTP, was provided in dose titration to force the translocation of the 3′-primer terminus from the pre-translocation N-site to the post-translocation P-site.
(final concentration, 1 µM), or ddATP (final concentration, 5 µM), Td43/Pd30 pre-annealed primer and template (final concentration, 200 nM based on Cy3-labeled Td43 concentration), and dTTP titrated at various concentrations. All reagent stocks were in a base assay buffer consisting of 120 mM Tris pH 7.5, 20 mM NaCl, and 6 mM MgCl2 in nuclease-free water. […] The reaction was then heated to 37 °C for 5 min before quenching 1:1 with gel-loading dye followed by heating at 95 °C for 10 min. Samples were stored at −20 °C until being resolved by polyacrylamide gel electrophoresis with 7 M urea.

## C#C[C@]1(CO)O[C@@H](n2cnc3c(N)nc(F)nc32)C[C@@H]1O [ISL, 4′-ethynyl-2-fluoro-2′-deoxyadenosine, reference compound]
[1]
  CC50: > 42000 nM
HIV-1 [2]; Human immunodeficiency virus 1, 48 h, read-out: Persistence assay IC50B, MT4-GFP cells
  IC50: 25.5 ± 9.96 nM
HIV-1 [2]; Human immunodeficiency virus 1, read-out: Persistence assay IC50A, MT4-GFP cells
  IC50: 0.89 ± 0.63 nM
HIV-1 [3]
  IC50: 0.2 nM and 0.23 nM
HIV-1 [4]; 48 h, read-out: Persistence assay IC50B, PBMCs
  IC50: 39.7 ± 23.9 nM
HIV-1 [4]; read-out: Persistence assay IC50A, PBMCs
  IC50: 0.8 ± 0.48 nM

## (2R,3S,5R)-5-(4-amino-5-methyl-7H-pyrrolo[2,3-d]pyrimidin-7-yl)-2-ethynyl-2-(hydroxymethyl)tetrahydrofuran-3-ol [Compound 8]
MT4-GFP cells
  CC50: 38800 nM
HIV-1 [5]
  IC50: 58.8 nM
HIV-1 [6]
  IC50: 85.4 nM
HIV-1 [7]
  Persistence ratio (MT4-GFP): 6
HIV-1 [4]; IC50B/IC50A, PBMCs
  Persistence ratio (PBMC): 18

## Nc1ncnc2c1ncn2[C@H]1CC[C@@H](CO[P@@](=O)(O)O[P@](=O)(O)OP(=O)(O)O)O1 [ddATP, dideoxyadenosine triphosphate, reference compound]
HIV RT [8]
  Chain termination mechanism (ICT/DCT): only inhibits via ICT
HIV RT [9]
  Translocation state of RT: mostly in the post-translocation state
